Test results as given in patent publication US20150283098A1, “PRENYLATED CHALCONE FORMULATION FOR THE TREATMENT OF BEES” (BIOACTIVE-TECH SP. Z O.O., priority 2012, published 2015).

How the values were obtained:
bees [1] = experiment: Stocking of a hive contaminated with a pesticide with a protected colony; type: in vivo; conditions: xanthohumol in syrup 2 g/l by spray; unprotected colony collapsed
Text: Furthermore, it was found on the basis of the studies with the use of the formulation according to the invention, that there is a possibility of rehabilitating the protected bees in these regions which were contaminated by pesticides, where it has not been possible so far. In the hive where a control bee colony unprotected with the preparation was stocked with new unprotected colony, it collapsed within a short time. A hive contaminated with a pesticide is poisonous for bees even after several weeks.

[2] = cited from earlier work
bees [3] = experiment: Example 3: viability of bee colonies poisoned with thiamethoxam (Actara) after xanthohumol spray; type: in vivo
Procedure: The experiment was carried out in Loma-Zawady Przedmieście, Poland in an apiary consisting of 25 colonies based in hives of Dadant type (frame 435×300 mm). The hives had wire-net, detachable bottom in the form of a diagnostic tray. The nest body of the hives consisted of 10 frames.
Bee colonies in the form of separated colonies were purchased from local producer. Each separated colony consisted of 3 frames of brood and frames with supply of bee bread and honey. All frames were settled in “black” by bees.
The experiments were carried out on 25 swarms of bees divided into VI groups. Groups I to V, consisted of 4 hives, each.
In groups I-V, xanthohumol at the concentration of 40 mg/l was used as a protective formulation. Actara at the concentration of 0.4 g/l was used for poisoning of insects (the concentration used in spraying of beetle).
Group IV—bee colonies treated with the protective preparation in the form of spray. Poisoning with Actara by alimentary route. 20 mg of xanthohumol were dissolved in 1 ml of ethyl alcohol and subsequently added to 0.5 l of sugar syrup in water in a ration 1:1 and four hives were sprayed with spraying machine so that one bee colony received a dose of 5 mg of xanthohumol. Poisoning with Actara given with 1:1 syrup (1 kg of sugar+1 l of water).
Group V—bee colonies treated with the protective preparation in the form of spray. Poisoning with Actara by contact route. 20 mg of xanthohumol were dissolved in 1 ml of ethyl alcohol and subsequently added to 0.5 l of sugar syrup in water in a ratio 1:1 and four hives were sprayed with the spraying machine so that one bee colony received a dose of about 5 mg of xanthohumol. Poisoning was carried out in the form of small-molecule spraying which was used for each frame with bees.
In this group, a formulation of different xanthohumol concentrations was used, and Actara (thiametoxam 25%) for poisoning of bees, at a dose of 0.2 g/l (concentration used by fruit farmers) was used. The control group were bees subjected only to spraying procedure with Actara.
Group VI a)—bees were protected with the formulation of xanthohumol concentration of 0.08 mg/l.
0.01 mg of xanthohumol was dissolved in 1 ml of ethyl alcohol and subsequently added to 0.125 l of sugar syrup in water in a ratio 1:1 and 1 hive was sprayed so that one a bee colony received a dose of about 0.01 mg of xanthohumol. After 24 hours, the bee colony was poisoned by a contact route. The poisoning was carried out in the form of small-molecule spraying which was used for each frame with bees.
Group VI b)—the bees were protected with the preparation of xanthohumol in concentration 1.6 mg/l.
0.2 mg of xanthohumol was dissolved in 1 ml of ethyl alcohol and subsequently added to 0.125 l of sugar syrup in water in a ratio 1:1 and 1 hive was sprayed so that one bee colony received a dose of about 0.2 mg of xanthohumol. After 24 hours, the bee colony was poisoned by the contact route. Poisoning was carried out in the form of small-molecule spraying which was applied on each frame with the bees.
Group VI c)—the bees were protected with a formulation of xanthohumol in concentration 16 mg/l.
2 mg of xanthohumol dissolved in 1 ml of ethyl alcohol which was added to 0.125 l of sugar syrup in water in a ration of 1:1 in duplicate and it was sprayed on 2 hives so that one bee colony received a dose of about 2 mg of xanthohumol. After 24 hours, the bee colonies were poisoned by the contact route. The poisoning was carried out if the form of a small-molecule spray which was applied on each frame with bees.
Group VI d)—the bees were protected with a preparation of xanthohumol concentration 8 g/1.
1 g of xanthohumol dissolved in 10 ml of ethyl alcohol which was then added to 0.125 l of sugar syrup in water in a ratio 1:1 and it was sprayed on 1 hive so that one bee colony received a dose of about 1000 mg of xanthohumol (1 hive). After 24 hours bee colony was poisoned by a contact route. […]

[4] = system: virus of sacbrood disease and mycosis and Nosemosis; experiment: Other studies in Poland: colonies with sacbrood disease, mycosis and Nosemosis; type: in vivo, bees; conditions: 5 mg per one bee colony
Procedure: The studies prowed that the formulation containing xanthohumol (at a dose of 5 mg per one bee colony) may be used also for the treatment of the virus of sacbrood disease and mycosis and Nosemosis. […] The increased hygienic instinct was shown by studies carried out on bee colonies by a dozen of beekeepers in Poland.

Nosema spp. = experiment: Spraying of bee colonies in apiary infected with Nosemosis; type: in vivo; conditions: several days after spraying with formulation containing xanthohumol
Text: (§1) (apis and cerenae). It was found on the basis of studies (initial results) that the amount of spores observed under a microscope after the use of Xn decreased by 60% on average in relation to control. Observation under a microscope of blended dead bees was related to counting of Nosema cells in the suspension of distilled water. […] The formulation was also investigated in several bee colonies in apiary infected with Nosemosis.

[5] = system: Nosema spp. (apis and cerenae); experiment: Counting of Nosema cells under a microscope in blended dead bees; type: in vivo
Text: as §1

[6] = system: focal ischaemia caused by MCAO in rats; conditions: cited from earlier work
bees [7] = experiment: Example 3: effect of xanthohumol formulation itself on bee colonies (vigour, hygienic instinct, toxicity); type: in vivo
Procedure: Group III—bee colonies treated with the protective formulation in the form of spray without poisoning with Actara. 20 mg of xanthohumol were dissolved in 1 ml of ethyl alcohol and subsequently added to 0.5 l of sugar syrup in water in a ratio of 1:1, and four hives were sprayed with use of a spraying machine so that one bee colony received a dose of about 5 mg of xanthohumol. Actara was not used in this experiment.
1 g of xanthohumol dissolved in 10 ml of ethyl alcohol which was then added to 0.125 l of sugar syrup in water in a ratio 1:1 and it was sprayed on 1 hive so that one bee colony received a dose of about 1000 mg of xanthohumol (1 hive). After 24 hours bee colony was poisoned by a contact route. Poisoning was carried out in the form of small-molecule spray which was applied on each frame with bees.

bees [8] = experiment: Example 1: viability of bees in experimental queen cages with high concentration of imidaclopride; type: in vivo; conditions: 10 mg/l xanthohumol in syrup for three days, then imidaclopride (Kohinor 200 SL) 375 μl/l; controls died in 100%
Procedure: The experiment was carried out in Lublin, Poland in an apiary containing 250 bee colonies.
The influence of xanthohumol concentration in sugar syrup on the viability of bees was studied on samples of 100 bees placed in a special cage for studies, (FIG. 1). The bees were taking a protective formulation for three days in the form of xanthohumol dissolved in standard sugar syrup in three concentrations: 5, 10 and 20 mg of xanthohumol/1, respectively. Each concentration was studied in three independent small hives. After three days of taking the protective formulation, the bees received imidaclopride (in Kohinor 200 SL) in a concentration of 375 μl/l in a […] (similar doses are used for controlling of insects in vegetable cultivations). As a control group, three small hives of 100 bees each were used, which were not fed with xanthohumol containing preparation. All xanthohumol concentrations and the control group were studied in thriplicate. Xanthohumol obtained by chromatographic method from hop post-extraction waste was used. The purity of the preparation was ˜99% (FIG. 3).

bees [9] = experiment: Example 2: viability and behaviour of bees in apiary hives with low concentration of imidaclopride spray; type: in vivo
Procedure: Similar studies as described in example 1 were carried out in three bee hives containing ˜40,000 bees. Frames with bees (FIG. 4) were sprayed with imidaclopride dissolved in water at a concentration of 125 μl/l (microlitres per litre). It is a half of imidaclopride concentration in Kohinor 200 SL used in cultivation of vegetables in soil. The purpose of the study was to investigate low doses of imidaclopride to which mainly are exposed the bees collecting nectar during agrotechnological procedures.
The bees were studied in two groups. […] The studied group were bees which were given protective xanthohumol preparation in […] (milligram per litre) syrup for one week and then treated with imidaclopride spray at the above mentioned concentration (FIGS. 6A, 6B and 6C).

COc1cc(O)c(CC=C(C)C)c(O)c1C(=O)/C=C/c1ccc(O)cc1 [xanthohumol]
fate of protected colony put into pesticide-contaminated hive (bees [1]): still lived and did not show symptoms of poisoning | water solubility [2]: poor | losses of bees (bees [3]; Group IV: xanthohumol 40 mg/l spray, Actara 0.4 g/l alimentary route after 24 hours): 35% | memory / flights for pollen of surviving colonies (bees [3]; Group IV: xanthohumol 40 mg/l, Actara 0.4 g/l alimentary route): did not lose memory | losses of bees (bees [3]; Group V: xanthohumol 40 mg/l spray, Actara 0.4 g/l contact route after 24 hours): 10% | memory / flights for pollen of surviving colonies (bees [3]; Group V: xanthohumol 40 mg/l, Actara 0.4 g/l contact route): did not lose memory and carried pollen | behaviour of the colony (bees [3]; Group VI a survivors, a week after post-poisoning spraying with xanthohumol 1.6 mg/l, dose of 2 mg): returned to normal | time until bees restarted flights around the hive (bees [3]; Group VI a survivors, sprayed after poisoning with xanthohumol 1.6 mg/l, dose of 2 mg): 48 h | part of bee colony that did not survive (bees [3]; Group VI a: xanthohumol 0.08 mg/l (0.01 mg per colony), Actara 0.2 g/l contact after 24 hours): 60% | restart of flights for pollen by surviving bees (bees [3]; Group VI a: xanthohumol 0.08 mg/l, Actara 0.2 g/l): did not restart flights for pollen either after 24 hours or 48 hours | part of bee colony that did not survive (bees [3]; Group VI b: xanthohumol 1.6 mg/l (0.2 mf per colony), Actara 0.2 g/l contact): about 40% | time until surviving bees restarted flights for pollen (bees [3]; Group VI b: xanthohumol 1.6 mg/l, Actara 0.2 g/l): 48 h | symptoms of poisoning (bees [3]; Group VI c: seven days from poisoning): do not show any symptoms of poisoning | survival of bees (bees [3]; Group VI c: xanthohumol 16 mg/l (2 mg per colony), Actara 0.2 g/l contact): almost all bees survived | time until surviving bees restarted flights for pollen (bees [3]; Group VI c: xanthohumol 16 mg/l, Actara 0.2 g/l): 24 h | symptoms of poisoning (bees [3]; Group VI d: after seven days): did not show any symptoms of poisoning | losses of bees (bees [3]; Group VI d: xanthohumol 8 g/l (1 g per colony), Actara 0.2 g/l): 10% | bees survived (bees [3]; Group VI d: xanthohumol 8 g/l (1 g per colony), Actara 0.2 g/l contact after 24 hours): 90% | effect in colonies with mycosis and Nosemosis [4]: fast purification of the nest from dead insects occurred | effect in colonies with sacbrood disease [4]: the colony started to work | typical symptoms of Nosema spp. infection (soiling of frames and front wall of the hive with feces) (Nosema spp.): disappeared | decrease of amount of Nosema spores observed under a microscope in relation to control ([5]; after the use of Xn, on average, initial results): 60% | number of Nosema pieces in suspension of blended dead bees ([5]; after using the formulation for 1 week, bees without Xn 30±3): 8±2 pieces | area of brain ischaemic necrosis [6]: significantly decreased | behaviour and hygienic instinct of bee colony (bees [7]; Group III: spray, xanthohumol 40 g/l, about 5 mg per colony, no Actara): improved the behaviour of bee colony and significantly influenced hygienic instinct of a bee | Varroa destructor mites on the diagnostic tray (bees [7]; Group III: spray, xanthohumol 40 g/l, no Actara, not observed in control hives): Dead mites Varroa destructor were also observed | symptoms increasing the vigour (bees [7]; Group VI a: 0.01 mg xanthohumol per colony): no symptoms increasing the vigour | toxic effects of xanthohumol preparation on bees (bees [7]; Group VI d: 1 gram per hive (8 g/l), inspected 24 hours after use, before poisoning): did not cause any toxic effects | movement of bees at the beehive entrance (bees [7]; all studied concentrations of xanthohumol, compared to control hives): increased movement of bees was observed at the beehive entrance | brooding of bee mothers compared with the control (bees [7]; first half of August, hives protected with the preparation): significant increase | viability of bees (bees [8]): ~45% | behaviour of bees (bees [9]; two weeks after the administration of imidaclopride): did not show any differences in behaviour compared to the healthy hives | bees died (bees [9]; xanthohumol 10 mg/ml (milligram per litre) syrup for one week, then imidaclopride spray 125 μl/l): ~10% | time from spraying until bees started to fly to the pasture and bring pollen (bees [9]; xanthohumol syrup one week, imidaclopride spray 125 μl/l): Three
